# Reference: the supplement of paper PMC10307832
# Columns and labels:
# Experiment in all cases: relative viability (nuclei count vs DMSO), 5 days (fraction); higher = more cells survive
# [1] = system: CAL-12T
# Procedure, shortened: (§1)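 For relative viability, nuclei counts in treated wells were divided by those in vehicle wells. Lung cancer cell lines had been pin-tool dosed in 1536-well plates the day after seeding and cultured for 5 days, then fixed and stained in one step (final 0.05% Triton X-100, 1% formaldehyde, 1 ug/ml Hoechst) and imaged at 4×. Doses were one drug alone or a fixed anchor-drug dose plus five library-drug doses (not always all listed) in √10 steps, and values are duplicate-plate medians.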
# [2] = system: ChaGo-K-1
# Procedure, shortened: as §1
# [3] = system: EMC-BAC-2
# Procedure, shortened: as §1
# [4] = system: HCC-366
# Procedure, shortened: as §1
# [5] = system: HCC-78
# Procedure, shortened: as §1
# [6] = system: HOP-62
# Procedure, shortened: as §1
# [7] = system: LC-2-ad
# Procedure, shortened: as §1
# [8] = system: LK-2
# Procedure, shortened: as §1
# [9] = system: NCI-H1355
# Procedure, shortened: as §1
# [10] = system: NCI-H1734
# Procedure, shortened: as §1
# [11] = system: NCI-H1993
# Procedure, shortened: as §1
# [12] = system: NCI-H2009
# Procedure, shortened: as §1
# [13] = system: NCI-H2085
# Procedure, shortened: as §1
# [14] = system: NCI-H2228
# Procedure, shortened: as §1
# [15] = system: NCI-H2347
# Procedure, shortened: as §1
# [16] = system: NCI-H2405
# Procedure, shortened: as §1
# [17] = system: NCI-H3122
# Procedure, shortened: as §1
# [18] = system: NCI-H596
# Procedure, shortened: as §1
# [19] = system: NCI-H838
# Procedure, shortened: as §1
# [20] = system: PC-14
# Procedure, shortened: as §1
# [21] = system: RERF-LC-KJ
# Procedure, shortened: as §1
# [22] = system: SK-MES-1
# Procedure, shortened: as §1
# [23] = system: SW 1573
# Procedure, shortened: as §1
smiles,measurement,setting,value
O=c1[nH]c2ccccc2n1C1CCN(CCCC(c2ccc(F)cc2)c2ccc(F)cc2)CC1 [Pimozide] + O=C(CCCCCCC(=O)Nc1ccccc1)NO [Vorinostat] (partner 1 µM),relative viability,[1]; first compound 0.08 µM,0.732
same,relative viability,[1]; first compound 0.253 µM,0.896
same,relative viability,[1]; first compound 0.8 µM,0.7
same,relative viability,[1]; first compound 2.53 µM,0.665
same,relative viability,[1]; first compound 8 µM,0.664
same,relative viability,[2]; first compound 0.08 µM,0.726
same,relative viability,[2]; first compound 0.253 µM,0.668
same,relative viability,[2]; first compound 0.8 µM,0.794
same,relative viability,[2]; first compound 2.53 µM,0.841
same,relative viability,[2]; first compound 8 µM,0.758
same,relative viability,[3]; first compound 0.08 µM,0.433
same,relative viability,[3]; first compound 0.253 µM,0.45
same,relative viability,[3]; first compound 0.8 µM,0.384
same,relative viability,[3]; first compound 2.53 µM,0.451
same,relative viability,[3]; first compound 8 µM,0.456
same,relative viability,[4]; first compound 0.08 µM,0.457
same,relative viability,[4]; first compound 0.253 µM,0.334
same,relative viability,[4]; first compound 0.8 µM,0.142
same,relative viability,[4]; first compound 2.53 µM,0.29
same,relative viability,[4]; first compound 8 µM,0.309
same,relative viability,[5]; first compound 0.08 µM,0.371
same,relative viability,[5]; first compound 0.8 µM,0.369
same,relative viability,[5]; first compound 2.53 µM,0.453
same,relative viability,[5]; first compound 8 µM,0.447
same,relative viability,[6]; first compound 0.08 µM,0.704
same,relative viability,[6]; first compound 0.253 µM,0.642
same,relative viability,[6]; first compound 2.53 µM,0.494
same,relative viability,[6]; first compound 8 µM,0.416
same,relative viability,[7]; first compound 0.08 µM,0.731
same,relative viability,[7]; first compound 0.253 µM,0.661
same,relative viability,[7]; first compound 0.8 µM,0.499
same,relative viability,[7]; first compound 2.53 µM,0.653
same,relative viability,[7]; first compound 8 µM,0.655
same,relative viability,[8]; first compound 0.08 µM,0.2
same,relative viability,[8]; first compound 0.253 µM,0.342
same,relative viability,[8]; first compound 0.8 µM,0.254
same,relative viability,[8]; first compound 2.53 µM,0.267
same,relative viability,[8]; first compound 8 µM,0.395
same,relative viability,[9]; first compound 0.08 µM,0.592
same,relative viability,[9]; first compound 0.253 µM,0.597
same,relative viability,[9]; first compound 0.8 µM,0.547
same,relative viability,[9]; first compound 2.53 µM,0.607
same,relative viability,[9]; first compound 8 µM,0.608
same,relative viability,[10]; first compound 0.08 µM,0.841
same,relative viability,[10]; first compound 0.253 µM,0.739
same,relative viability,[10]; first compound 0.8 µM,0.569
same,relative viability,[10]; first compound 2.53 µM,0.763
same,relative viability,[10]; first compound 8 µM,0.847
same,relative viability,[11]; first compound 0.08 µM,0.502
same,relative viability,[11]; first compound 0.253 µM,0.966
same,relative viability,[11]; first compound 0.8 µM,0.68
same,relative viability,[11]; first compound 2.53 µM,0.857
same,relative viability,[11]; first compound 8 µM,0.533
same,relative viability,[12]; first compound 0.08 µM,0.639
same,relative viability,[12]; first compound 0.253 µM,0.764
same,relative viability,[12]; first compound 0.8 µM,0.651
same,relative viability,[12]; first compound 2.53 µM,0.698
same,relative viability,[12]; first compound 8 µM,0.694
same,relative viability,[13]; first compound 0.08 µM,0.77
same,relative viability,[13]; first compound 0.253 µM,0.861
same,relative viability,[13]; first compound 0.8 µM,0.723
same,relative viability,[13]; first compound 2.53 µM,0.802
same,relative viability,[13]; first compound 8 µM,0.741
same,relative viability,[14]; first compound 0.08 µM,0.623
same,relative viability,[14]; first compound 0.253 µM,0.668
same,relative viability,[14]; first compound 0.8 µM,0.668
same,relative viability,[14]; first compound 2.53 µM,0.677
same,relative viability,[14]; first compound 8 µM,0.318
same,relative viability,[15]; first compound 0.08 µM,0.685
same,relative viability,[15]; first compound 0.253 µM,0.594
same,relative viability,[15]; first compound 0.8 µM,0.537
same,relative viability,[15]; first compound 2.53 µM,0.537
same,relative viability,[15]; first compound 8 µM,0.492
same,relative viability,[16]; first compound 0.08 µM,1.01
same,relative viability,[16]; first compound 0.253 µM,0.964
same,relative viability,[16]; first compound 0.8 µM,0.955
same,relative viability,[16]; first compound 2.53 µM,1.01
same,relative viability,[16]; first compound 8 µM,0.791
same,relative viability,[17]; first compound 0.08 µM,0.924
same,relative viability,[17]; first compound 0.253 µM,0.951
same,relative viability,[17]; first compound 0.8 µM,0.81
same,relative viability,[17]; first compound 2.53 µM,0.724
same,relative viability,[17]; first compound 8 µM,0.847
same,relative viability,[18]; first compound 0.08 µM,0.702
same,relative viability,[18]; first compound 0.253 µM,0.598
same,relative viability,[18]; first compound 0.8 µM,0.467
same,relative viability,[18]; first compound 2.53 µM,0.583
same,relative viability,[18]; first compound 8 µM,0.549
same,relative viability,[19]; first compound 0.08 µM,0.745
same,relative viability,[19]; first compound 0.253 µM,0.716
same,relative viability,[19]; first compound 0.8 µM,0.663
same,relative viability,[19]; first compound 2.53 µM,0.702
same,relative viability,[19]; first compound 8 µM,0.705
same,relative viability,[20]; first compound 0.253 µM,0.711
same,relative viability,[20]; first compound 0.8 µM,0.684
same,relative viability,[20]; first compound 2.53 µM,0.713
same,relative viability,[20]; first compound 8 µM,0.701
same,relative viability,[21]; first compound 0.08 µM,0.616
same,relative viability,[21]; first compound 0.253 µM,0.677
same,relative viability,[21]; first compound 0.8 µM,0.612
same,relative viability,[21]; first compound 2.53 µM,0.463
same,relative viability,[21]; first compound 8 µM,0.613
same,relative viability,[22]; first compound 0.08 µM,1.13
same,relative viability,[22]; first compound 0.253 µM,1.02
same,relative viability,[22]; first compound 0.8 µM,0.991
same,relative viability,[22]; first compound 2.53 µM,1.06
same,relative viability,[22]; first compound 8 µM,0.996
same,relative viability,[23]; first compound 0.08 µM,0.83
same,relative viability,[23]; first compound 0.253 µM,0.63
same,relative viability,[23]; first compound 0.8 µM,0.579
same,relative viability,[23]; first compound 2.53 µM,0.323
same,relative viability,[23]; first compound 8 µM,0.33
